Here are results for ten molecules from ChEMBL document CHEMBL1201862, “PubChem BioAssay data set” (2004).

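These data come from cells grown in 96-well plates and exposed to compound for 48 hours at five concentrations. The concentration for 50% growth inhibition is given as GI50.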 Calls of active or inactive are those of the source. No stated cut-off is given here; in the data, active = GI50 up to about 1.1 µM and inactive = higher.

Some test systems named below: A498; A549; COLO 205; HL-60; HOP-62; KM12; MCF7; Malme-3M; OVCAR-3; OVCAR-8; PC-3; RPMI-8226; SF-268; SF-539; SNB-19; SNB-75; SR; SW-620; TK-10; UACC-257.
Holding throughout (assay): NCI-60 cell line screen, 48 h

Take `OC1c2ccccc2[C@@H]2[C@H]1[C@@H](c1ccccc1)C1(Cc3ccccc3C1O)[C@H]2c1ccccc1` (stereo not given in full): the GI50 is 10.1 µM (inactive) in the assay on A498; 3.86 µM (inactive) with A549; 1.84 µM (inactive) in the assay on COLO 205; 2.01 µM (inactive) with HL-60; 10.7 µM (inactive) in the assay with HOP-62; 2.77 µM (inactive) with KM12. Further, the GI50 in the assay on MCF7 was 1.99 µM (inactive); in the assay on Malme-3M it was 5.53 µM (inactive); in the assay with OVCAR-3 it was 2.36 µM (inactive); in the assay with OVCAR-8 it was 5.45 µM (inactive); in the assay with PC-3, 3 µM (inactive); in the assay with RPMI-8226 it was 2.84 µM (inactive). In addition, the GI50 in the assay with SF-268 was 6.7 µM (inactive); in the assay on SF-539, 13.4 µM (inactive); in the assay on SNB-19, 13.6 µM (inactive); in the assay on SNB-75, 7.73 µM (inactive); in the assay on SR it was 1.11 µM (active); in the assay on SW-620, 5.01 µM (inactive). Moreover, the GI50 with TK-10 was 16.1 µM (inactive); in the assay on UACC-257 it was 3.93 µM (inactive).
Take `O=C1Oc2ccccc2C(=O)/C1=C\Nc1nc(-c2ccc(O)c(O)c2)cs1`: the GI50 was 11.9 µM (inactive) in the assay on A498; 6.67 µM (inactive) with A549; 2.3 µM (inactive) in the assay on COLO 205; 2.32 µM (inactive) with HL-60; 7.18 µM (inactive) with HOP-62; 9.08 µM (inactive) in the assay on KM12. Also, the GI50 in the assay on MCF7 was 3.94 µM (inactive); in the assay on Malme-3M it was 2.99 µM (inactive); in the assay on OVCAR-3, 2.29 µM (inactive); in the assay on OVCAR-8, 4.14 µM (inactive); in the assay on PC-3 it was 3.24 µM (inactive); in the assay with RPMI-8226, 1.53 µM (inactive). The GI50 is 5.25 µM (inactive) in the assay on SF-268; 5.46 µM (inactive) with SF-539; 11.7 µM (inactive) in the assay with SNB-19; 5.56 µM (inactive) with SNB-75; 1.19 µM (inactive) with SR; 2.44 µM (inactive) in the assay with SW-620. The GI50 in the assay on TK-10 is 3.26 µM (inactive); in the assay on UACC-257 it was 3.61 µM (inactive).
For the molecule `OCc1ccc2c(c1)CC1(C2)Cc2cc3c(cc2C1)CCC3`, the GI50 with A498 was 5.86 µM (inactive); with A549, 8.47 µM (inactive); with COLO 205 it was 2.51 µM (inactive); in the assay with HL-60, 1.11 µM (active); in the assay with HOP-62, 4.7 µM (inactive); with KM12, 1.9 µM (inactive). The GI50 in the assay on MCF7 was 2.5 µM (inactive); in the assay with Malme-3M, 4.71 µM (inactive); in the assay on OVCAR-3 it was 3.02 µM (inactive); with OVCAR-8, 10.8 µM (inactive); with PC-3, 1.19 µM (inactive); in the assay with RPMI-8226 it was 2.76 µM (inactive). Besides, the GI50 in the assay on SF-268 is 17.5 µM (inactive); in the assay on SF-539, 3.57 µM (inactive); in the assay on SNB-19 it was 4.89 µM (inactive); in the assay on SNB-75 it was 2.26 µM (inactive); in the assay on SR, 1.14 µM (inactive); in the assay with SW-620, 1.77 µM (inactive). Also, the GI50 in the assay on TK-10 was 13 µM (inactive); with UACC-257, 7.48 µM (inactive).
In the case of `N#Cc1c(N)nc2c3c1NC(=O)C(C(N)=O)C3c1ccccc1O2` (stereo not given), the GI50 in the assay with A498 is > 100 µM (inactive); in the assay with A549 it was > 100 µM (inactive); with COLO 205, > 100 µM (inactive); in the assay with HL-60 it was 99.3 µM (inactive); with HOP-62, 60.8 µM (inactive); in the assay on KM12, > 100 µM (inactive). In addition, the GI50 with MCF7 is > 100 µM (inactive); with Malme-3M, > 100 µM (inactive); in the assay with OVCAR-3, > 100 µM (inactive); in the assay with OVCAR-8, 42.5 µM (inactive); with PC-3 it was > 100 µM (inactive); in the assay with RPMI-8226, 63 µM (inactive). The GI50 is 26.2 µM (inactive) with SF-268; 74 µM (inactive) in the assay on SF-539; 47.9 µM (inactive) in the assay on SNB-19; 54.7 µM (inactive) in the assay with SNB-75; 62.5 µM (inactive) in the assay with SR; > 100 µM (inactive) with SW-620. In addition, the GI50 in the assay with TK-10 and in the assay on UACC-257 was > 100 µM (inactive) throughout.
On to `O=c1cc(-c2ccccc2)oc2ccc(Cl)cc12` [6-CHLOROFLAVONE], for which the GI50 is > 68.5 µM (inactive) in the assay on A498; > 100 µM (inactive) in the assay on A549; > 61.8 µM (inactive) in the assay with COLO 205; > 46.5 µM (inactive) in the assay on HL-60; 44.7 µM (inactive) in the assay with HOP-62; > 64.7 µM (inactive) with KM12. The GI50 is 20.7 µM (inactive) in the assay with MCF7; 56.9 µM (inactive) in the assay with Malme-3M; > 100 µM (inactive) in the assay with OVCAR-3; > 86.5 µM (inactive) in the assay with OVCAR-8; > 52.5 µM (inactive) in the assay on PC-3; > 73.5 µM (inactive) in the assay with RPMI-8226. Further, the GI50 was 31.8 µM (inactive) with SF-268; 37.7 µM (inactive) with SF-539; 29.6 µM (inactive) with SNB-19; 26.8 µM (inactive) with SNB-75; 20.7 µM (inactive) with SR; > 92.7 µM (inactive) in the assay with SW-620. Moreover, the GI50 is 50 µM (inactive) with TK-10 and > 54.5 µM (inactive) in the assay on UACC-257.
Consider `N#CC(C#N)/N=N/c1ccc(-c2nc3ccccc3[nH]2)cc1`, for which the GI50 in the assay on A498 was > 100 µM (inactive); in the assay on A549, > 100 µM (inactive); in the assay on COLO 205, 7.57 µM (inactive); in the assay on HL-60, 0.288 µM (active); with HOP-62 it was > 100 µM (inactive); with KM12 it was 59.2 µM (inactive). Moreover, the GI50 with MCF7 was 11.1 µM (inactive); in the assay with Malme-3M, 13.6 µM (inactive); in the assay on OVCAR-3, 13.8 µM (inactive); with OVCAR-8, 23.1 µM (inactive); with PC-3, 15.8 µM (inactive); with RPMI-8226, 20.7 µM (inactive). The GI50 in the assay with SF-268 is 28.2 µM (inactive); in the assay with SF-539, 15.9 µM (inactive); in the assay on SNB-19 it was > 100 µM (inactive); in the assay on SNB-75, 42 µM (inactive); with SR, 18.5 µM (inactive); with SW-620, 11.5 µM (inactive). Moreover, the GI50 in the assay on TK-10 was 30.8 µM (inactive); with UACC-257 it was 14.9 µM (inactive).
Turning to `Cc1ccc(/N=C2N=C(Cl)/C(=C\c3ccccc3)N\2)cc1`, the GI50 is > 100 µM (inactive) in the assay with A498; > 100 µM (inactive) with A549; 85.3 µM (inactive) in the assay on COLO 205; 3.9 µM (inactive) in the assay with HL-60; > 100 µM (inactive) in the assay with HOP-62; > 22.6 µM (inactive) in the assay on KM12. The GI50 in the assay on MCF7 is > 100 µM (inactive); in the assay on Malme-3M, > 100 µM (inactive); in the assay on OVCAR-3, > 100 µM (inactive); with OVCAR-8, > 25.8 µM (inactive); in the assay with PC-3, > 79.3 µM (inactive); in the assay with RPMI-8226, 5.11 µM (inactive). Further, the GI50 in the assay with SF-268 was > 100 µM (inactive); in the assay with SF-539 it was > 100 µM (inactive); with SNB-19, > 100 µM (inactive); in the assay on SNB-75, > 100 µM (inactive); in the assay with SR it was 0.625 µM (active); in the assay on SW-620, > 25 µM (inactive). Further, the GI50 in the assay with TK-10 is > 100 µM (inactive); in the assay on UACC-257, > 76.6 µM (inactive).
Regarding `COc1cccc(N(CN2C(=O)CCC2C(=O)O)C(C)=O)c1` (stereo not given), the GI50 with A498, with A549, in the assay with COLO 205, in the assay on HL-60, in the assay on HOP-62 and in the assay with KM12 was > 100 µM (inactive) each time. The GI50 in the assay on MCF7, with Malme-3M, with OVCAR-3, with OVCAR-8, in the assay with PC-3 and with RPMI-8226 was > 100 µM (inactive) throughout. Also, the GI50 in the assay on SF-268, in the assay on SF-539, in the assay on SNB-19, in the assay on SNB-75, in the assay on SR and in the assay with SW-620 was > 100 µM (inactive) in each case. Besides, the GI50 with TK-10 and in the assay with UACC-257 was > 100 µM (inactive) each time.
With `Cc1ccc(OCC2OC(n3cnc4c(Cl)nc(Cl)nc43)CC2Oc2ccc(C)cc2)cc1` (stereo not given), the GI50 in the assay with A498 is 23.1 µM (inactive); with A549, 3.5 µM (inactive); with COLO 205 it was 1.96 µM (inactive); with HL-60 it was 2.36 µM (inactive); with HOP-62, 2.56 µM (inactive); with KM12, 1.7 µM (inactive). In addition, the GI50 with MCF7 is 1.85 µM (inactive); in the assay on Malme-3M, 2.18 µM (inactive); in the assay on OVCAR-3 it was 2.37 µM (inactive); in the assay on OVCAR-8, 2.31 µM (inactive); in the assay with PC-3 it was 2.44 µM (inactive); in the assay with RPMI-8226 it was 1.23 µM (inactive). For the same molecule, the GI50 with SF-268 was 1.96 µM (inactive); with SF-539 it was 1.93 µM (inactive); in the assay on SNB-19 it was 1.5 µM (inactive); with SNB-75, 2.52 µM (inactive); with SR it was 2.49 µM (inactive); with SW-620, 3.66 µM (inactive). For the same molecule, the GI50 with TK-10 was 11.2 µM (inactive); in the assay on UACC-257, 2.68 µM (inactive).
For `COc1ccc(Cc2c(-c3ccc(C)cc3)n[nH]c(=O)c2C2C(=O)N(c3ccccc3)N=C2c2ccccc2)cc1` (stereo not given), the GI50 is 30.2 µM (inactive) in the assay on A498; 31.4 µM (inactive) in the assay with A549; 20.7 µM (inactive) in the assay with COLO 205; 39.3 µM (inactive) in the assay with HL-60; 40.1 µM (inactive) in the assay with HOP-62; 22.3 µM (inactive) in the assay on KM12. Besides, the GI50 in the assay with MCF7 was 44.5 µM (inactive); in the assay on Malme-3M, 24.1 µM (inactive); in the assay with OVCAR-3, 19 µM (inactive); in the assay with OVCAR-8, 30.3 µM (inactive); in the assay on PC-3, 26.7 µM (inactive); with RPMI-8226, 42 µM (inactive). Further, the GI50 in the assay with SF-268 is 38.9 µM (inactive); in the assay on SF-539, 25.1 µM (inactive); in the assay with SNB-19 it was 36.1 µM (inactive); with SNB-75, 23.9 µM (inactive); in the assay on SR it was 37.1 µM (inactive); in the assay with SW-620, 37.7 µM (inactive). The GI50 in the assay on TK-10 was 29.2 µM (inactive); with UACC-257 it was 29.3 µM (inactive).
